For test [1], the system named is HCV genotype 1a (H77 strain) replicon in HUH-7 cells. Description: HCV replicon luciferase reporter assay, genotype 1a. The class given is cell-based. As to conditions: Hepatitis C virus, Huh-7, 72 h, HCV genotype 1a replicon luciferase, 3 days incubation. A digest of the protocol:
(§1)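 Replicon inhibition for both genotypes was measured as Renilla luciferase signal (EnduRen, 7.5 μM final, 2 h) after 3-day, 37° C exposure of replicon-bearing HUH-7 cells in 4% FCS DMEM, 0.5% DMSO. The 1b construct carries S1179I; the 1a H77 construct carries P1496L and S2204I. Twenty-point, 3-fold dilutions were fitted four-parametrically for EC50, and CC50 was taken from multiplexed Cell Titer-Blue.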
On the technique in general: Replicon systems follow genome replication, usually without infectious particles.

Test [2] deals with HCV genotype 1b (Con1) replicon in HUH-7 cells. The test is described as follows: HCV replicon luciferase reporter assay, genotype 1b. The class given is cell-based. As to conditions: Hepatitis C virus, Huh-7, 72 h, HCV genotype 1b replicon luciferase, 3 days incubation. In a few lines:
as §1

Where [3] appears, read: GETYPE1A, read-out: LE_1a (EC50, range).
The mark [4] stands for this setting: GETYPE1B, read-out: LE_1b (EC50, range).
The mark [5] stands for this setting: GETYPE1A, read-out: LE_1a (EC50).
The mark [6] stands for this setting: GETYPE1B, read-out: LE_1b (EC50).

Where two headings read alike, the source gives them in different places.

Consider `CC[C@@H]1C[C@H](C)CC/C=C\[C@@H]2C[C@@]2(C(=O)NS(=O)(=O)C2(C)CC2)NC(=O)[C@@H]2C[C@@H](Oc3nc(OC)cc4cc(OC)c(F)cc34)CN2C(=O)[C@H]1NC(=O)OC(C)(C)C(C)(F)F` [Compound 1188], for which the half-maximal effective concentration (EC50) (as a rule, the concentration giving half of the maximal effect) in test [1] (setting [3]) was in the range of 1.01 to 5 nM; in test [2] (setting [4]), 0.51 to 1 nM.
The matching figures for `CC[C@@H]1C[C@H](C)CC/C=C\[C@@H]2C[C@@]2(C(=O)NS(=O)(=O)C2(C)CC2)NC(=O)[C@@H]2C[C@@H](Oc3nc(OC)cc4cc(OC)c(F)cc34)CN2C(=O)[C@H]1NC(=O)OC1(C(F)(F)F)CCCOC1` (stereo partly shown) [Compound 1189]: 1.01 to 5 nM and 0.51 to 1 nM.
Regarding `COc1cc2ccnc(O[C@@H]3C[C@H]4C(=O)N[C@]5(C(=O)NS(=O)(=O)C6(CF)CC6)C[C@H]5/C=C\CC[C@@H](C)C[C@@H](C)[C@H](NC(=O)OC5(C(F)(F)F)CCCCO5)C(=O)N4C3)c2cc1F` (stereo partly shown) [Compound 1190], the concentration giving a half-maximal response (EC50) is 1.66 nM in test [1] (setting [5]), 1.01 to 5 nM in test [1] (setting [3]), 1.12 nM in test [2] (setting [6]) and 1.01 to 5 nM in test [2] (setting [4]).
In the case of `COc1cc2ccnc(O[C@@H]3C[C@H]4C(=O)N[C@]5(C(=O)NS(=O)(=O)C6(CF)CC6)C[C@H]5/C=C\CC[C@H](C)C[C@@H](C)[C@H](NC(=O)OC5(C(F)(F)F)CCCCO5)C(=O)N4C3)c2cc1F` (stereo partly shown) [Compound 1191], the EC50 in test [1] (setting [3]) and in test [2] (setting [4]) was 5.01 to 35 nM in each case.
For the compound `CC[C@@H]1C[C@H](C)CC/C=C\[C@@H]2C[C@@]2(C(=O)NS(=O)(=O)C2(C)CC2)NC(=O)[C@@H]2C[C@@H](Oc3nccc4cc(OC)c(F)cc34)CN2C(=O)[C@H]1NC(=O)OC1(C(F)(F)F)CCCCO1` (stereo partly shown) [Compound 1192], the EC50 lay within 1.01 to 5 nM in test [1] (setting [3]) and 0.51 to 1 nM in test [2] (setting [4]).
The matching figures for `CC[C@@H]1C[C@H](C)CC/C=C\[C@@H]2C[C@@]2(C(=O)NS(=O)(=O)C2(CF)CC2)NC(=O)[C@@H]2C[C@@H](Oc3nc(OC)cc4cc(OC)ccc34)CN2C(=O)[C@H]1NC(=O)OC(C)(C)C(F)(F)F` [Compound 1193]: 1.01 to 5 nM and 0.51 to 1 nM.
The matching figures for `CC[C@@H]1C[C@@H](C)CC/C=C\[C@@H]2C[C@@]2(C(=O)NS(=O)(=O)C2(CF)CC2)NC(=O)[C@@H]2C[C@@H](Oc3nc(OC)cc4cc(OC)ccc34)CN2C(=O)[C@H]1NC(=O)OC(C)(C)C(F)(F)F` [Compound 1194]: 5.01 to 35 nM and 1.01 to 5 nM.
As to `CC[C@@H]1C[C@H](C)CC/C=C\[C@@H]2C[C@@]2(C(=O)NS(=O)(=O)C2CC2)NC(=O)[C@@H]2C[C@@H](Oc3nc4c(c5cc(OC)c(F)cc35)CCCO4)CN2C(=O)[C@H]1NC(=O)OC(C)(C)C(F)(F)F` [Compound 1195], the EC50 in test [1] (setting [3]) and in test [2] (setting [4]) was 1.01 to 5 nM each time.
On to `COc1cc2c3c(nc(O[C@@H]4C[C@H]5C(=O)N[C@]6(C(=O)NS(=O)(=O)C7(C)CC7)C[C@H]6/C=C\CC[C@@H](C)C[C@@H](C)[C@H](NC(=O)OC(C)(C)C(F)(F)F)C(=O)N5C4)c2cc1F)OCCC3` [Compound 1196], for which the EC50 in test [1] (setting [3]) and in test [2] (setting [4]) was 0.51 to 1 nM each time.
Take `CC[C@@H]1C[C@H](C)CC/C=C\[C@@H]2C[C@@]2(C(=O)NS(=O)(=O)C2(C)CC2)NC(=O)[C@@H]2C[C@@H](Oc3nc4c(c5cc(OC)c(F)cc35)CCCO4)CN2C(=O)[C@H]1NC(=O)OC(C)(C)C(F)(F)F` [Compound 1197]: the results for the EC50 in test [1] (setting [3]) and in test [2] (setting [4]) were 1.01 to 5 nM and 0.51 to 1 nM, respectively.
Consider `CC[C@@H]1C[C@H](C)CC/C=C\[C@@H]2C[C@@]2(C(=O)NS(=O)(=O)C2(C)CC2)NC(=O)[C@@H]2C[C@@H](Oc3nc4c(c5cc(OC)c(F)cc35)CCCO4)CN2C(=O)[C@H]1NC(=O)OC(C)(C)C(C)(F)F` [Compound 1198], for which the EC50 was 0.5 nM in test [1] (setting [5]), 0.1 to 0.5 nM in test [1] (setting [3]), 0.9 nM in test [2] (setting [6]) and 0.51 to 1 nM in test [2] (setting [4]).
`CC[C@@H]1C[C@H](C)CC/C=C\[C@@H]2C[C@@]2(C(=O)NS(=O)(=O)C2(C)CC2)NC(=O)[C@@H]2C[C@@H](Oc3cc(OC)nc4cc(OC)c(F)cc34)CN2C(=O)[C@H]1NC(=O)OC(C)(C)C(F)(F)F` [Compound 1199]: the EC50 in test [1] (setting [3]) and in test [2] (setting [4]) was 1.01 to 5 nM each time.
Turning to `CC[C@@H]1C[C@H](C)CC/C=C\[C@@H]2C[C@@]2(C(=O)NS(=O)(=O)C2(C)CC2)NC(=O)[C@@H]2C[C@@H](Oc3cc(OC)nc4cc(OC)c(F)cc34)CN2C(=O)[C@H]1NC(=O)OC(C)(C)C(C)(F)F` [Compound 1200], the EC50 in test [1] (setting [3]) and in test [2] (setting [4]) was 1.01 to 5 nM in each case.
With `CC[C@@H]1C[C@H](C)CC/C=C\[C@@H]2C[C@@]2(C(=O)NS(=O)(=O)C2CC2)NC(=O)[C@@H]2C[C@@H](Oc3cc(OC)nc4cc(OC)c(F)cc34)CN2C(=O)[C@H]1NC(=O)OC(C)(C)C(F)(F)F` [Compound 1201], the EC50 in test [1] (setting [3]) and in test [2] (setting [4]) was 1.01 to 5 nM in each case.
On to `CC[C@@H]1C[C@H](C)CC/C=C\[C@@H]2C[C@@]2(C(=O)NS(=O)(=O)C2CC2)NC(=O)[C@@H]2C[C@@H](Oc3cc(OC)nc4cc(OC)c(F)cc34)CN2C(=O)[C@H]1NC(=O)OC(C)(C)C(C)(F)F` [Compound 1202], for which the results for the EC50 in test [1] (setting [3]) and in test [2] (setting [4]) were 1.01 to 5 nM and 0.51 to 1 nM, respectively.
For `COc1cc(O[C@@H]2C[C@H]3C(=O)N[C@]4(C(=O)NS(=O)(=O)C5(C)CC5)C[C@H]4/C=C\CC[C@@H](C)C[C@@H](C)[C@H](NC(=O)OC(C)(C)C(F)(F)F)C(=O)N3C2)c2cc(F)c(OC)cc2n1` [Compound 1203], the EC50 in test [1] (setting [3]) is 1.01 to 5 nM; in test [2] (setting [4]), 0.1 to 0.5 nM.
The matching figures for `COc1cc(O[C@@H]2C[C@H]3C(=O)N[C@]4(C(=O)NS(=O)(=O)C5(C)CC5)C[C@H]4/C=C\CC[C@@H](C)C[C@@H](C)[C@H](NC(=O)OC(C)(C)C(C)(F)F)C(=O)N3C2)c2cc(F)c(OC)cc2n1` [Compound 1204]: 1.01 to 5 nM and 0.51 to 1 nM.
Turning to `COc1ccc2c(O[C@@H]3C[C@H]4C(=O)N[C@]5(C(=O)NS(=O)(=O)C6CC6)C[C@H]5/C=C\CC[C@@H](C)C[C@@H](C)[C@H](NC(=O)OC(C)(C)C)C(=O)N4C3)nccc2c1` [Compound 1205, tert-butyl ((2R,6S,7R,9R,13aS,14aR,16aS,Z)-14a-((cyclopropylsulfonyl)carbamoyl)-2-((6-methoxyisoquinolin-1-yl)oxy)-7,9-dimethyl-5,16-dioxo-1,2,3,5,6,7,8,9,10,11,13a,14,14a,15,16,16a-hexadecahydrocyclopropa[e]pyrrolo[1,2-a][1,4]diazacyclopentadecin-6-yl)carbamate], the EC50 in test [1] (read-out: LE_1a (EC50)) was 0.62 nM; in test [1] (read-out: LE_1a (EC50, range)), 0.51 to 1 nM; in test [2] (read-out: LE_1b (EC50)), 0.75 nM; in test [2] (read-out: LE_1b (EC50, range)) it was 0.51 to 1 nM.
For the compound `COc1ccc2c(O[C@@H]3C[C@H]4C(=O)N[C@]5(C(=O)NS(=O)(=O)C6CC6)C[C@H]5/C=C\CC[C@H](C)C[C@@H](C)[C@H](NC(=O)OC(C)(C)C)C(=O)N4C3)nccc2c1` [Compound 1206, tert-butyl ((2R,6S,7R,9S,13aS,14aR,16aS,Z)-14a-((cyclopropylsulfonyl)carbamoyl)-2-((6-methoxyisoquinolin-1-yl)oxy)-7,9-dimethyl-5,16-dioxo-1,2,3,5,6,7,8,9,10,11,13a,14,14a,15,16,16a-hexadecahydrocyclopropa[e]pyrrolo[1,2-a][1,4]diazacyclopentadecin-6-yl)carbamate], the EC50 fell in the range of 1.01 to 5 nM in test [1] (read-out: LE_1a (EC50, range)) and 1.01 to 5 nM in test [2] (read-out: LE_1b (EC50, range)).
For the compound `COc1cnc(O[C@@H]2C[C@H]3C(=O)N[C@]4(C(=O)NS(=O)(=O)C5CC5)C[C@H]4/C=C\CC[C@@H](C)C[C@@H](C)[C@H](NC(=O)OC(C)(C)C)C(=O)N3C2)c2cc(Cl)ccc12` [Compound 1207, tert-butyl ((2R,6S,7R,9R,13aS,14aR,16aS,Z)-2-((7-chloro-4-methoxyisoquinolin-1-yl)oxy)-14a-((cyclopropylsulfonyl)carbamoyl)-7,9-dimethyl-5,16-dioxo-1,2,3,5,6,7,8,9,10,11,13a,14,14a,15,16,16a-hexadecahydrocyclopropa[e]pyrrolo[1,2-a][1,4]diazacyclopentadecin-6-yl)carbamate], the EC50 in test [1] (read-out: LE_1a (EC50, range)) was 1.01 to 5 nM; in test [2] (read-out: LE_1b (EC50, range)), 0.51 to 1 nM.
Regarding `COc1cnc(O[C@@H]2C[C@H]3C(=O)N[C@]4(C(=O)NS(=O)(=O)C5CC5)C[C@H]4/C=C\CC[C@H](C)C[C@@H](C)[C@H](NC(=O)OC(C)(C)C)C(=O)N3C2)c2cc(Cl)ccc12` [Compound 1208, tert-butyl ((2R,6S,7R,9S,13aS,14aR,16aS,Z)-2-((7-chloro-4-methoxyisoquinolin-1-yl)oxy)-14a-((cyclopropylsulfonyl)carbamoyl)-7,9-dimethyl-5,16-dioxo-1,2,3,5,6,7,8,9,10,11,13a,14,14a,15,16,16a-hexadecahydrocyclopropa[e]pyrrolo[1,2-a][1,4]diazacyclopentadecin-6-yl)carbamate], the EC50 lay within 5.01 to 35 nM in test [1] (read-out: LE_1a (EC50, range)) and 1.01 to 5 nM in test [2] (read-out: LE_1b (EC50, range)).
On to `CC[C@@H]1C[C@H](C)CC/C=C\[C@@H]2C[C@@]2(C(=O)NS(=O)(=O)C2(C)CC2)NC(=O)[C@@H]2C[C@@H](Oc3cc(OC)nc4cc(OC)ccc34)CN2C(=O)[C@H]1NC(=O)OC(C)(C)C(F)(F)F` [Compound 1209], for which the EC50 in test [1] (setting [5]) was 5.66 nM; in test [1] (setting [3]) it was 5.01 to 35 nM; in test [2] (setting [6]), 2 nM; in test [2] (setting [4]), 1.01 to 5 nM.

The record behind these values is patent US9499550B2 (BRISTOL-MYERS SQUIBB COMPANY, priority 2012, dated 2016).
